Assay results published in patent publication US10785978B2, “Control and repellency of biting flies, house flies, ticks, ants, fleas, biting midges, cockroaches, spiders and stink bugs” (priority 2012, dated 2020).

What was measured:
Type in all cases: in vivo
[1] = tested on: Brown Dog Ticks, Rhipicephalus sanguineus
Source text: The following protocol was employed to test compounds of this invention for toxicity (mortality) against ticks. There were 5 replicates of 5 dog ticks for each treatment. […] Filter paper strips were laid on a sheet of aluminum foil and enough of each of the test sample was applied to thoroughly saturate the paper. The paper was then rolled and placed inside a glass shell vial as to line the sides of the vial. A small paper disc, also saturated with the test sample, was then placed at the bottom of the vial. Brown Dog Ticks, Rhipicephalus sanguineus, were then introduced into the vials which were covered with aluminum foil, the inside of which was painted with some of the test sample. The ticks remained in the vials, constantly exposed to the test samples, for the duration of the test. A small hole was poked through the foil for ventilation. Each control replicate was subjected to the same procedures outlined above, except that they were not treated. The controls were placed in the same area as the test replicates for the duration of the test. Mortality observations were made at 24 hours. Ticks were classified as alive (able to move normally), moribund (those classified as moribund will show some movement, but will not be able to crawl in a coordinated manner, or will be unable to right themselves if placed on their backs), or dead (no movement after physical stimuli). All dead ticks were confirmed by probing or agitation to make sure that they are unable to move; any that show movement visible to the naked eye were recorded as moribund. At 24 hours the tick mortality was 0% for the control, 100% for γ-dodecalactone, 100% for methyl apritone and 76% for methyl dihydrojasmonate.

[2] = tested on: Brown Dog Ticks; assay: Second repellent assay against Brown Dog Ticks; settings: 7% in isopropyl alcohol
Description: Also, a second repellent assay was used to evaluate six test samples against Brown Dog Ticks. Five replicates of five ticks were given the opportunity to quest onto a vertical strip of untreated filter paper and then allowed to move upward toward a second vertical strip of filter paper treated with one of the six candidate repellents or DEET®. In the control situation, the second strip was treated with isopropanol. They were then observed for directional or behavioral changes caused in response to contact with the repellent. Ticks were recorded as either repelled or not repelled. Compounds were diluted in isopropyl alcohol. The percentages of ticks repelled are shown below in Table 6.

[3] = tested on: stable flies; assay: Stable fly probing on treated warmed blood-filled membranes; settings: for Probes at 7% test compound: 7% in isopropyl alcohol on membrane; for Probes at 7% test compound / Probes at 15% test compound: twenty minutes, percent of control probes taken as 100%; for Probes at 15% test compound: 15% in isopropyl alcohol on membrane
Description: Five replicates of 100 mixed-sex stable flies each were placed in screened cages. The cages were placed in such a way that the stable flies had access to five warmed, blood-filled membrane walls. The membranes were treated with methyl dihydrojasmonate, gamma-dodecalactone, methyl apritone, or DEET® all at 7% and at 15% in isopropyl alcohol, or isopropyl alcohol as a control. There were five replicates tested with a positional rotation of the repellent at each replicate. Fresh batches of stable flies were used for each replicate. Thus each test sample was tested on each of the five wells, which allowed any positional bias to be eliminated. The number of stable flies probing each well was recorded at two minute intervals for twenty minutes. The total number of probes on each well were tallied at the end of the twenty minute observation period and the average percentage repellency was calculated for each compound. An analysis of variance was conducted to compare the average number of probes on each treatment membrane. The number of probes for the control was taken as the 100% baseline and the percentage for the test compounds is the percent for the number of probes for the test compound compared to the number of control probes.

[4] = tested on: sand flies P. papatasi; assay: Sand fly bite test on treated human skin with K&D module; settings: for percent biting, Treatment level 5%: 5% compound in isopropyl alcohol on human skin; for percent biting, Treatment level 5% / percent biting, Treatment level-10%: five minute exposure, percent of control biting taken as 100%; for percent biting, Treatment level-10%: 10% compound in isopropyl alcohol on human skin; for sand flies repelled: at 5%
Description: Control against sand flies was determined by the following protocol as generally described in J. Med. Entomol. 43 (6), 1248-1252 (2006). Volunteers wearing short pants were seated. Using a skin-marking template and a washable-ink marker, skin areas represented by 3- by 4-cm floor opening of six cells of a K&D module were outlined on the outer, top and inner thigh position of each leg of the volunteers. The six treated cell rectangles each represented a random block, and each volunteer had three blocks on each of two thighs. All treatments against the sand flies P. papatasi, were pipetted onto a 4- by 5-cm rectangular area (so the area of skin covered by a treatment exceeded the template marks by 0.5 cm in every direction) of the subjects' skin with 55 ul of isopropyl alcohol/treatment containing 10% or 5% compound/ul isopropyl alcohol. Treating a slightly larger area ensured that the areas beneath each K&D module contained only treated skin. Skin treated with isopropyl alcohol alone served as control. In all tests adjacent cells of the K&D module were supplied with ten sand flies. The sand fly charged K&D module was positioned over the treated skin areas and the trap doors of the K&D module above the areas were opened. After a five minute skin exposure the trap doors were closed. The number of sand fly bites was recorded for each cell. The percent biting is the percent compared to the biting for the control which was taken as 100%.

[5] = tested on: German cockroaches; assay: German cockroach repellency, choice of food stations in arena; settings: 50% in acetone; at 4 hours
Description: The efficacy of compounds of this invention to control or repel German cockroaches was illustrated using the following protocol. One food pellet each was placed on a paper square (station) treated with one of the repellent materials. Materials were diluted to 50% in acetone and a straight acetone station was also used. Both stations were placed on the same side of the arena. Cockroaches were starved for 2 days and then released into the arena. They were given a choice to feed on either food pellet. A control arena with an acetone treated station and an untreated station was also used. The distribution of cockroaches within the arena was recorded at 30 minute intervals over 4 hours. Repellency at 4 hours was calculated by the number of cockroaches on the untreated station vs. the total number of cockroaches on the stations.

[6] = tested on: house flies; assay: House fly repellency on treated filter paper food trays in cages; settings: over 6 hours
Description: The bottom of each cage was lined with brown craft paper and divided into 4 equal quadrants. Each quadrant housed a makeshift filter paper food tray. Two of the four filter papers were treated with repellent and two treated with isopropanol. Control cages contained filter papers that were treated with 4 filter papers of isopropanol only. The number of flies resting on filter paper per quadrant was recorded every 30 minutes for a total of 6 hours. Cages were rotated to eliminate positional bias. […] Each of the test samples were diluted in isopropyl alcohol.

[7] = tested on: Black Widow spiders; assay: Black Widow spider choice test in half-treated tube shelters; settings: 5% in isopropanol; location after 24 hours
Description: Control against Black Widow spiders was determined using the following protocol. One test container containing two card stock tube shelters, one half treated with a test sample and the other half treated with isopropanol was prepared. A spider was introduced in the center of the tube. The spider was then given a choice to move to one end of the shelters. The following day, its location is recorded and compared to the results from a shelter containing untreated half-shelters.
On the day of the test one of the two shelters was sprayed with the test sample solution using a 2 oz pump spray bottle. Only the surfaces that the spider will most likely contact were treated. Therefore, only the inside of one of the shelter tubes, including the end disc (spiders will not be able to access the outside part of the shelter) were sprayed. The total amount of product was weighed and recorded. The treated surface was allowed to dry for a minimum of ½ hour, or until solvent could not be detected by smell. At this time the shelter tubes were assembled.
Card stock paper tube shelters were constructed from 2 half-letter sized sheets (5½″×8½″) of paper, rolled and taped together to form a short tube. One end of each was covered with a circle of card stock paper, while the other end was later taped to the open end of the other half sheet, forming one long tube. […] The solvent-treated half was labeled with a “C” on the inner and outer walls with a pencil or a pen with solvent resistant ink. Prior to forming the final tube shelter, a semi-circular hole was cut into one of the margins of each sheet such that, once the two tubes are taped together, the holes correspond to the top and at the junction of the tubes for introduction of the spiders.
Twenty-five arenas were prepared in this manner for each test sample. There were five replicates of five spiders. Twenty-five additional control arenas were also prepared. They were prepared the same way, except that areas to be sprayed were sprayed with isopropanol only.
Replicates of five spiders were selected for each test formulation and for the control. The specimens were visually examined for overall physical condition. […] The spiders were transferred directly into the holding vials using flexible forceps or with a little coaxing with an artist brush. Because of their cannibalistic tendencies, each vial contained only one spider. There they were held until the time for testing.
At the test start the spiders were placed directly in the middle, through the opening at the top of the shelter tube, and the opening covered, with only one spider per arena. […] They were left alone for 24 hours, after which time their location within the arena was recorded. Spiders present inside the shelter treated with the test repellent were considered tolerant.

[8] = tested on: Brown Dog Ticks, Rhipicephalus sanguineus; assay: Brown Dog tick repellency on vertical filter paper strips
Description: Control against Brown Dog ticks was determined in the following protocol. Strips of filter paper, 1″ by 3″, were placed on a sheet of aluminum foil treated with 1 ml each of the test samples and allowed to dry. The end of each treated strip was stapled to an untreated filter paper strip of the same dimensions. The stapled strips were suspended in a vertical position above a tray, with the treated half attached to a horizontal glass rod by a metal clip. The untreated half was lowered when the strip is vertically positioned. Brown Dog Ticks, Rhipicephalus sanguineus, mixed sexes, were purchased from a supplier. Five replicates of five ticks for each treatment regimen plus five additional replicates for the control were employed. Ticks shipped to the test site were given at least one day to acclimate to “shipping stress” before they are used for testing. Those tick specimens which appeared sluggish or moribund were not used. Suitable ticks were removed from their containers and allowed to quest on the free end of the test strip. Once present on the strip they were watched as they crawled up the strip until they contacted the treated paper. If the tick, once in contact with the treated zone, either turned around, stopped without proceeding further, or dropped off, the tick is classified as repelled. If it continued to crawl onto the treated strip, even after it stopped briefly, that tick was classified as not repelled. A maximum observation time of 1 minute per replicate was allowed for ticks to respond after reaching the treated area, but during the test, if more time was needed, the maximum observation time may have been adjusted at the discretion of the study coordinator. At the end of the observation time, the number of ticks repelled was recorded. Tick behavior was recorded when applicable, such as whether increased number of affected or repelled ticks occurred in successive replicates over time. After the completion of each treatment parameter, the testing chamber was ventilated for five minutes by turning on the exhaust fan and opening the door leading into the chamber. Ticks were used only once. Average number of ticks displaying each behavior category were calculated and compared to the control replicates.

[9] = tested on: brown marmorated stink bugs (BMSB); assay: Brown marmorated stink bug repellency, treated vs. untreated filter paper arena
Description: The two semi-circle filter papers were aligned together to completely cover the bottom of the test arena. Control arenas were also set up in a similar fashion except both were treated with acetone. Five replicates of 5 BMSB were then introduced into both the treated and control arenas. By releasing them in the center of the arena, the BMSB were presented with a choice of treated vs. untreated substrate (or untreated vs. untreated in the control arenas). The repellency of the BMSB was recorded at 24 hours post-treatment.

[10] = tested on: Pharaoh ants; assay: Pharaoh ant behaviour at treated-untreated interface on poster board; settings: 50% in acetone; 5 minutes after release
Description: Pharaoh ants were tested using the following protocol. The side of a 17″×23″ rectangular sheet of poster board was sprayed with the test sample or acetone, except for a region within a 6″ circle. The treated poster board was allowed to dry. Five worker ants were placed in the center of the 6″ untreated circle and allowed to wander outside the circle onto the treated surface. The behavior of the ants at the treated-untreated interface was recorded for 5 minutes after release. Test compounds were diluted in acetone.

CCCCCC1CC(C)=CC(O)C1 (stereo not shown) [3-Methyl-5-Pentyl-2-cyclohexenol, 3-methyl-5-pentyl-2-cyclohexenol]
morbidity at 24 hr ([1]; 10%, constant exposure 24 hours): 100%
24 hr mortality (%) ([1]; in vivo): 12%

CCN(CC)C(=O)c1cccc(C)c1 [DEET ®, N,N-Diethyl-m-toluamide, reference compound]
Mean % repelled [2]: 96%
Probes at 7% test compound [3]: 45.9%
Probes at 15% test compound [3]: 16.2%

CCCCCC1C(O)CCC1CC(=O)OC (stereo not shown) [Methyl dihydrojasmolate]
percent biting, Treatment level 5% [4]: 0%
percent biting, Treatment level-10% [4]: 0%
sand flies repelled [4]: 100%

CCCCCC1C(=O)CCC1CC(=O)OCC=C(C)C (stereo not shown) [Prenyl dihydrojasmonate]
% Repellency 4 hr [5]: 87.5%

CCCCCCCCCC1CCCC(=O)O1 (stereo not shown) [delta Tetradecalactone]
Overall % Repellency ([6]; 5% in isopropyl alcohol): 76%

CCCCCCCCCCCC1CCC(=O)O1 (stereo not shown) [gamma Pentadecalactone]
% Repellency [7]: 75.0%
Overall % Repellency ([6]; 7.5% in isopropyl alcohol): 87%

CCCCCCCCCC1CCC(=O)O1 (stereo not shown) [gamma Tridecalactone, gamma-tridecalactone]
% Repellency [7]: 75.0%
Overall % Repellency ([6]; 5% in isopropyl alcohol): 80%
Overall % Repellency ([6]; 7.5% in isopropyl alcohol): 94%
Mean % repelled ([8]; 7.5% in isopropyl alcohol): 100%
% Repellency at 24 hours ([9]; 5% in isopropyl alcohol): 70%

CCCCCCCCC1CCC(=O)O1 (stereo not shown) [gamma-Dodecalactone, gamma-dodecalactone]
% Repellency 4 hr [5]: 96.6%
Overall % Repellency ([6]; 7.5% in isopropyl alcohol): 100%
% crossed without stopping [10]: 82%
% slowed, but crossed [10]: 8%
% stopped at interface [10]: 10%
24 hr mortality (%) ([1]; in vivo): 100%
tick mortality at 24 hours ([1]; in vivo): 100%
Mean % repelled ([8]; Neat): 100%
ticks repelled ([8]; concentration not given): 100%
% Repellency at 24 hours ([9]; 10% in isopropyl alcohol): 100%
Probes at 7% test compound [3]: 6.2%
Probes at 15% test compound [3]: 3.6%
repellency compared with DEET ([3]; at the same concentrations (7% and 15%)): repelled better than DEET®

Farnesyl cyclopentanone
% Repellency 4 hr [5]: 100%

Methyl apritol
percent biting, Treatment level 5% [4]: 12.5%
percent biting, Treatment level-10% [4]: 0%
sand flies repelled [4]: 87.5%
